# Test results taken from paper PMC3462190, “A Peptidic Unconjugated GRP78/BiP Ligand Modulates the Unfolded Protein Response and Induces Prostate Cancer Cell Death” (PLoS ONE, 2012).
# Where no end group is shown, it is not given here.
# B1: Bag-1 peptide: internal sequence of 68 amino acids of Bag-1 (Bag1-L 202–269), HA-tagged, expressed from pcDNA3 (peptide)
# chain: TPLSALGIQDGCRVMLIGKKNSPQEEVELKKLKHLEKSVEKIADQLEELNKELTGIQQGFLPKDLQAE
# modifications: also: HA tag, end not given here
# Tested on: 22Rv.1 cells
# Test: Clonogenic assay
# Type: cell-based
# Conditions: neomycin selection, colonies quantified; mean ± SEM of at least three independent experiments
# Description: Figure 5 An N-terminal unfolded fragment of the Bag-1 peptide is sufficient to reduce tumor cell growth. A. Schematic diagram of the Bag-1 peptide and its deletion mutants. The ubiquitin-like domain is represented in blue and the BAG domain in red. The numbers refer to the amino acid positions of the different domains. The amino acid residues are numbered following the numbering for Bag-1L. B. Prediction of the secondary structure of the Bag-1 peptide, showing an N-terminal β-hairpin from the ubiquitin-like domain (blue) and a C-terminal α-helix from the BAG domain (red). C. Normalized circular dichroism spectra of the Bag-1 peptides. 30 µM of the Bag-1 peptide were measured in 20 mM KHPO4 buffer, pH 6.8 (black line). Its α-helical content was estimated to be approximately 25% by deconvolution of the spectra (red line). 12 µM of the N-term peptide (green line) and 11 µM of C-term (blue line) were measured under the same conditions. D. ^1H^15N-HSQC NMR spectrum of ^15N-labeled Bag-1 peptide (202–269) in 20 mm KHPO4 buffer, pH 6.8, at 23°C. […] The Hδ and Hε side chain signals of asparagine and glutamine are connected by thin lines. E. The N-terminal region of the Bag-1 peptide is important for GRP78 binding. 400 µg of 22Rv.1 cell lysate were incubated with glutathione-agarose beads carrying 15 µg GST-N-term peptide (lane 2), GST-C-term peptide (lane 3), GST-ΔUbi peptide (lane 4), GST-Bag-1(202–269) peptide (lane 5) and GST (lane 6). The beads were washed and the bound proteins were separated by 10% SDS-PAGE and subjected to Western blotting using antibodies directed against GRP78 or GST. […] F. Clonogenic assay of the Bag-1 peptides expressed in 22Rv.1 cells. Cells transfected with the indicated constructs were selected in medium containing neomycin and the colonies formed were quantified. Shown are the mean value ±SEM of at least three independent experiments using three different plasmid preparations (*p<0.05). […] Six-week old athymic nude mice were injected subcutaneously on both flanks with 5×10^6 cells of each stable clone. Tumor size was measured once per week using a caliper and expressed as tumor volume in mm^3. Shown are the tumor volumes of clones transfected with the N-terminal peptide (G), the C-terminal peptide (H) and the ΔUbi peptide (I). Each point represents the mean volume and standard deviation of at least 5 to 10 tumors.
# Figure 6 Selectivity of action of the Bag-1 peptide. A Amino acid sequence of the 19mer peptide and its deletion mutants. B GST pull-down assay performed incubating 400 µg of 22Rv.1 cell lysate and 25 µg of GST-fused deletion mutants of the 19mer peptide. After the pull-down experiment, Western blots were carried out with anti-GRP78/BiP and GST antibodies. C. Fluorescence polarization (FP) assays with a 10 nM FITC-labeled 7-mer Bag-1 peptide and dilutions of the GST-fused substrate binding domain of GRP78 in 60 µl of Tris-GSH buffer (50 mM Tris, 10 mM reduced glutathione and 0.1% BSA, pH 8.0). Triplicate samples were measured after 5 h of incubation at room temperature with an Infinite F-200 reader (Tecan) with excitation at 490 nm and emission at 535 nm. Binding constants were determined from three independent experiments using non-linear regression in Sigma Plot 10.0. D. Competition assays with a complex of 10 nM of FITC-labeled Bag-1 7-mer peptide and 0.75 mg/ml GST-fused GRP78 substrate binding domain was measured against a dilution series from 100 µM to 0.1 nM of wild-type Bag-1 7-mer peptide (filled line) or triple mutant peptide (dotted line) in 40 µl of Tris-GSH buffer. FITC-peptide and the FITC-peptide-protein complex were used as controls. Fluorescence polarization was determined as described above and IC50 values were determined in Sigma Plot. […]
row,Molecule,22Rv.1 growth in clonogenic assay
1,N-terminal peptide: N-terminal 40 residues of the Bag-1 peptide (Bag-1L 202–241) (TPLSALGIQDGCRVMLIGKKNSPQEEVELKKLKHLEKSVE; not fully specified),inhibited growth of the 22Rv.1 cells
2,ΔUbi peptide: Bag-1 peptide lacking the ubiquitin-like domain portion (Bag-1L 220–269) (KKNSPQEEVELKKLKHLEKSVEKIADQLEELNKELTGIQQGFLPKDLQAE; not fully specified),ineffective
3,C-terminal peptide: 28 C-terminal fragment of the Bag-1 peptide (Bag-1L 241–269) (EKIADQLEELNKELTGIQQGFLPKDLQAE; not fully specified),ineffective
4,19-mer: Bag-1L 202–220 (TPLSALGIQDGCRVMLIGK; not fully specified),inhibit 22Rv.1 cell growth
5,B1,inhibited growth of the 22Rv.1 cells
